Calls of active or inactive are those of the source.
How the values were obtained:
P388 = test: cells; format: functional; details: Mus musculus
P388/ADR = test: cells; format: functional; details: Mus musculus
SN12K1 = test: cells; format: functional; details: Homo sapiens
Escherichia coli = test: microbe, parasite or virus in culture
[1] = microbe, parasite or virus in culture; format: functional; details: Mycobacterium tuberculosis
cells [2] = format: functional, cell-based
cells [3] = format: functional, cell-based; remark: listed apart in the source
cells [4] = format: functional
[5] = THP-1 cell cytotoxicity, dose response, cytotoxicity control for non-replicating M. tuberculosis project (AID 489025); format: functional
[6] = Trypanosoma cruzi growth suppression in host cells – NIH3T3 host cells, beta-gal luminescence, confirmation (AID 2044); format: functional, cell-based;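 also: intracellular parasites grown in NIH/3T3 mouse fibroblasts as host cells; luminescent beta-galactosidase reporter signal from transgenic T. cruzi replicating inside host cells; inhibitors lower the luminescence signal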
[7] = NIH3T3 cell viability loss – ATP luminescence, mouse fibroblasts, counter-screen, dose response (AID 2010); format: functional, cell-based;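 also: cells exposed to compound for about 90 hours before reading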
INS1 = test: INS-1E survival protection against cytokine death – cell-based, luminescence, retest, dose response (AID 449756); format: functional; details: Rattus norvegicus;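 also: cell death triggered by IL-1 beta plus TNF-alpha plus IFN-gamma mixture; protective hits raise ATP signal compared with cytokine alone wells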
[8] = Vero E6 cell cytotoxicity, dose response, cytotoxicity control for non-replicating M. tuberculosis project, secondary assay (AID 492998); format: functional, VeroE6; details: Vero C1008
Cytochrome P450 3A4 [9] = biological target: T1, Cytochrome P450 3A4 (Homo sapiens, UniProt P08684); details: Potency
[10] = biological target: T2, DNA repair protein RAD52 homolog (Homo sapiens, UniProt P43351); format: functional, biochemical
T2 sequence (P43351 whole entry): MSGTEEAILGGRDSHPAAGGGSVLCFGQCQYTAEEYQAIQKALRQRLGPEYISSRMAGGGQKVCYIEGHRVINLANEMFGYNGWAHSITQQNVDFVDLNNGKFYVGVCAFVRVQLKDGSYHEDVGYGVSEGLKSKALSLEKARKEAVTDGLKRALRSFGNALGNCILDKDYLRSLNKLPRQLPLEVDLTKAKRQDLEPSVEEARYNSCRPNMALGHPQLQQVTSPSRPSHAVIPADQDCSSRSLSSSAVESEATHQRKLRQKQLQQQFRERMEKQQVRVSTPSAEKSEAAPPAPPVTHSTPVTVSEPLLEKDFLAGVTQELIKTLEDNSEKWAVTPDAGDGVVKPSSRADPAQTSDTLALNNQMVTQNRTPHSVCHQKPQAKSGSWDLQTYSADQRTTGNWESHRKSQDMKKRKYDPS

Cytochrome P450 3A4 [11] = biological target: T1, Cytochrome P450 3A4
Cytochrome P450 2C9 = Cytochrome P450 2C9 (Homo sapiens, UniProt P11712)
[12] = viability of HCT116 lacking mutant beta-catenin – cell-based, human colon tumor, dose response (AID 1045); format: functional;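 also: HCT116 colon tumor cells with beta catenin knocked out; cells exposed to compound for 60 hours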
[13] = viability of PTEN-deleted HCT116 cells – cell-based, HCT116 PTEN knockout, dose response (AID 1047); format: functional;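 also: HCT116 colon tumor cells with PTEN knocked out; cells exposed to compound for 60 hours before readout; potency for loss of cell viability measured by luminescence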

T1 sequence (P08684 whole entry): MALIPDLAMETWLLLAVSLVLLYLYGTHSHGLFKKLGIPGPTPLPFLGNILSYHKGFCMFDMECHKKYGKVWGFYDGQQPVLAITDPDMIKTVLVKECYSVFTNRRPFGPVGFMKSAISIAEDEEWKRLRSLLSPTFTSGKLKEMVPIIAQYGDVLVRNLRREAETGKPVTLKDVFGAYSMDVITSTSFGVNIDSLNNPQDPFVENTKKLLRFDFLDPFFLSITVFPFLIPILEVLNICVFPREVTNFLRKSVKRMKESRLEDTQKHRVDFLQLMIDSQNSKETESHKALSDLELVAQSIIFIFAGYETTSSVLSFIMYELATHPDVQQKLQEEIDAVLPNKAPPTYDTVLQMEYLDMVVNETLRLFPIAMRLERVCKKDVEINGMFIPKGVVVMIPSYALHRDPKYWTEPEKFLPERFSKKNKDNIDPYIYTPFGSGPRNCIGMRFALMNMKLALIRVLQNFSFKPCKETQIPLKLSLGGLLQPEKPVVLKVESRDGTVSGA
Sequence of Cytochrome P450 2C9 (P11712 whole entry): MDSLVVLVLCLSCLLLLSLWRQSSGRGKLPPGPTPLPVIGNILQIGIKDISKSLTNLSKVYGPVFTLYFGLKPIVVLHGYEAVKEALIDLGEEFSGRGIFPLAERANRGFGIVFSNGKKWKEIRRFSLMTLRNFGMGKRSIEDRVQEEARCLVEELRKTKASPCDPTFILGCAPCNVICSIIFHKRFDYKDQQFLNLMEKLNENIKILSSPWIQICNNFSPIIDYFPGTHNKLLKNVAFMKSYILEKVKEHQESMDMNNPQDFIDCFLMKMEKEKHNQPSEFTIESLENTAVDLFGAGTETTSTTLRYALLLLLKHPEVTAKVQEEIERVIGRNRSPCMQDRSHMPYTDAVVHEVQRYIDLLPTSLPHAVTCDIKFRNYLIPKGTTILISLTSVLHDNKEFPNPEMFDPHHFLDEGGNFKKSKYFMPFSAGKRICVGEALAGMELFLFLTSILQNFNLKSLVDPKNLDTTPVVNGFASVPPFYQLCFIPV

SMILES: COc1ccc(O)c(C#N)c1C#N.COc1ccc(OC)c(C#N)c1C#N
- GI50 (P388): > 100 µM (inactive)
- GI50 (P388/ADR): > 100 µM (inactive)
- GI50 (SN12K1): > 100 µM (inactive)

SMILES: Brc1ccc2[nH]c3c(C4=NCCC4)nccc3c2c1
- GI50 (P388): 9.51 µM (inactive)
- GI50 (P388/ADR): 9.57 µM (inactive)
- GI50 (SN12K1): 9.98 µM (inactive)

SMILES: COc1ccc(CCN2C(=O)CC(NNC(=O)c3ccc(F)cc3)C2=O)cc1OC (stereo not drawn)
- AC50 (Escherichia coli): 20.9 µM (active)

SMILES: c1ccc(CSc2ccc(-c3ccccn3)nn2)cc1
- CC50 [1]: 36.9 µM (active)
- EC50 (cells [2]): 85.6 µM (active)
- EC50 (cells [3]): 28.4 µM (active)
- IC50 (cells [4]): 15.1 µM (active)
- CC50 [5]: 14.2 µM (active)
- EC50 [6]: 1.99 µM (active)
- EC50 [7]: > 30 µM (not active)
- AC50 (INS1): 5.5 µM (active)
- CC50 [8]: 12 µM (active)

SMILES: CC(=O)OC1CCC23CC1(C)CCC2C(C)(C)CC3OC(C)=O (stereo not drawn) [CLOVANEDIOL DIACETATE]
- AC50 (Cytochrome P450 3A4 [9]): 15.8 µM (inconclusive)

SMILES: CC(=O)c1cc(CN2CCN(C3CCCCC3)C(CCO)C2)cs1 (stereo not drawn)
- AC50 (Escherichia coli): 27.7 µM (active)

SMILES: CC(C)(C)NCC(O)CON=C1c2ccccc2-c2ccccc21 (stereo not drawn)
- AC50 [10]: 20.1 µM (active)

SMILES: C#CCN1CCN(C(=S)N/N=C(\C)c2ccccn2)CC1
- GI50 (P388): < 0.01 µM (active)
- GI50 (P388/ADR): < 0.01 µM (active)
- GI50 (SN12K1): 0.01 µM (active)

SMILES: NCCCC[C@H]1CN=C(N)N1CCC12CC3CC(CC(C3)C1)C2
- AC50 [10]: 23.3 µM (active)

SMILES: O=C(c1ccco1)N1CCC2(CC1)CN(c1ccccc1)C2
- AC50 (Cytochrome P450 3A4 [11]): inconclusive
- AC50 (Cytochrome P450 2C9): 25.1 µM (inconclusive)

SMILES: O=C(CCNc1ccc(F)cc1)c1ccco1
- IC50 (cells [4]): 13.6 µM (active)
- CC50 [5]: > 40 µM (active)
- CC50 [8]: 17.9 µM (active)

SMILES: CCCCC/C=C\C/C=C\CCCCCCCC(=O)O [LINOLEIC ACID]
- AC50 (Cytochrome P450 3A4 [9]): 31.6 µM (inconclusive)

SMILES: O=C(CN1C(=O)NC2(CCCCC2)C1=O)NCc1cccs1
- AC50 (Escherichia coli): 34.2 µM (active)

SMILES: CCCCS(=N)(=O)CCC(N)C(=O)O (stereo not drawn) [BUTHIONINE SULFOXIMINE]
- AC50 (Cytochrome P450 3A4 [9]): 20 µM (inconclusive)

SMILES: Cn1c(=O)c(-c2cc(F)cc(F)c2)nc2cnc(Oc3ccccc3)nc21
- AC50 (Cytochrome P450 3A4 [11]): inconclusive
- AC50 (Cytochrome P450 2C9): 20 µM (inconclusive)

SMILES: CN(C)CCCN(C(=O)c1ccc2c(c1)CCCC2)c1nc2c(F)cccc2s1
- EC50 [12]: 30 µM (active)
- AC50 [10]: 35.2 µM (active)
- EC50 [13]: 27 µM (active)
- EC50 [6]: 0.164 µM (active)
- EC50 [7]: > 60 µM (not active)

— ChEMBL document CHEMBL1201862, “PubChem BioAssay data set” (2004)
